Source: paper PMC8443589, “Modelling human liver fibrosis in the context of non-alcoholic steatohepatitis using a microphysiological system” (Communications Biology, 2021)

System: liver MPS NASH model (PHH, KC and HSC co-cultures)
Assay: Cue study: pro-fibrotic biomarkers TIMP-1, pro-collagen 1, fibronectin (Fig 5c)
Assay type: cell-based, human
Conditions: for Fibronectin (Fold change in cytokine production compared to control) / Pro-collagen 1 (Fold change in cytokine production compared to control) / TIMP-1 (Fold change in cytokine production compared to control): fat medium + cue
Excerpt: Assessment of gene expression changes was supplemented by assessment of the secretome produced by NASH microtissues in the MPS after exposure to the various cues. Increased pro-inflammatory cytokine secretion is a defining characteristic in NASH patients, so we conducted a Luminex cytokine array covering 42 different biomarkers, cytokines and chemokines secreted into the culture media of the different microtissues at multiple time points. We consistently detected 27 out of the 42 biomarkers and observed that there was differential expression of cytokines and chemokines driven by the different cues applied to the micro-tissue (Fig. 5a, b). The LPS cue and the presence of higher NPC numbers were responsible for driving the largest increase in cytokine and chemokine release, with the largest increases in cytokines measured on day 14 (Fig. 5b). […] Similarly, to the cytokine production, these changes were not further enhanced by combining cues, as all the cue combinations containing TGFβ had the highest expression (Supp. Fig. 17c).
Fig. 5 Systems biology interrogation of liver MPS NASH model to determine physiologically relevant cues that promote soluble biomarker changes to mimic advanced NASH disease state. PHH, KC and HSC co-cultures were cultured in the MPS platform under a variety of conditions for 14 days to test number of NPCs, presence of fat, fructose, cholesterol, LPS and TGFβ for effects on the soluble biomarker profile of the liver MPS NASH model. Expression of biomarkers, cytokines and chemokines were compared, all concentrations were normalised by Z-transformation to allow comparison and shown relative to mean for each marker (white = not detected). a Cytokine expression compared with varying levels of NPCs; b for the high NPC group in the presence of additional cues; c Expression of pro-fibrotic biomarkers with varying NPC content and with additional varying cues in high NPC condition (additional data in Supp. Fig. 17). d Graphical summary of the changes that occur in the NASH model in the presence of Fat and Fat + TGFβ. All data were generated from a minimum of three independent replicate samples per condition.
The MPS LC12 plates consists of 12 individual bioreactors that contain pneumatically driven micro-pumps to recirculate cell culture medium through a collagen-coated scaffold. Cells were cultured using the protocol previously described[20],[21], but briefly, PHH were seeded at a density of 6 × 10^5 viable cells per well on the LC12 plates with each NPC population (KC and/or HSC) at a density of 6 × 10^4 viable cells per well. Each well contained a final volume of 1.6 mL of medium per well and maintained under a flow rate of 1.0 µL/s. Cells were seeded in Williams E medium containing primary hepatocyte thawing and plating supplements (Life Technologies, USA) and cultured initially under downward flow for 8 h before the flow was automatically reversed to upward flow for the next 16 h of culture. Microtissues were then cultured in either HEP-Lean or HEP-Fat medium, both media’s are proprietary to CN Bio Innovations Ltd. The HEP-Fat medium is a derivative of the HEP-LEAN medium and contains a mixture of saturated and unsaturated FFAs, as well as physiologically relevant quantities of insulin and sugars. Complete media changes were performed on all wells every 48–72 h. For certain experiments, the media was supplemented with additional additives from day 4 onwards: 1 ng/ml LPS (lipopolysaccharides from Escherichia coli O111:B4) (Sigma Aldrich, UK), 1 ng/ml recombinant TGF beta 1 protein (Abcam, UK); 500 µM Fructose (Sigma Aldrich, UK), 50 µg/ml Cholesterol (Sigma Aldrich, UK). […]

TGFβ: recombinant TGF beta 1 protein (Abcam), 1 ng/ml cue
Fibronectin (Fold change in cytokine production compared to control) (Day 6, high NPC): 1.218
Pro-collagen 1 (Fold change in cytokine production compared to control) (Day 6, high NPC): 1.954
TIMP-1 (Fold change in cytokine production compared to control) (Day 6, high NPC): 2.132
Fibronectin (Fold change in cytokine production compared to control) (Day 11, high NPC): 1.379
Pro-collagen 1 (Fold change in cytokine production compared to control) (Day 11, high NPC): 1.672
TIMP-1 (Fold change in cytokine production compared to control) (Day 11, high NPC): 1.0946
Fibronectin (Fold change in cytokine production compared to control) (Day 14, high NPC): 0.05285
Pro-collagen 1 (Fold change in cytokine production compared to control) (Day 14, high NPC): 0.4105
TIMP-1 (Fold change in cytokine production compared to control) (Day 14, high NPC): 0.9486
pro-collagen 1, fibronectin and TIMP-1 expression (cue study): most significant increases
